Data published in US10744457B2, “Electrochemical separator” (Hamilton Sundstrand Corporation, priority 2017, dated 2020).

Test: susceptibility to oxidation in the presence of free oxygen
Type: physicochemical
Settings: inferred from redox potential
Text: Another example would be an anthraquinone functionalized with sulfonate groups, such as 2,7 anthraquinone disulfonic acid. The 1,2 benzoquinone disulfonic acid has a higher reduction-oxidation potential than anthraquinone (approximately 0.8V versus 0.2V, as determined against a reversible hydrogen electrode).

O=C1c2ccc(S(=O)(=O)O)cc2C(=O)c2cc(S(=O)(=O)O)ccc21 [2,7 anthraquinone disulfonic acid]
oxidation in the presence of oxygen: more susceptible to oxidation in the presence of free oxygen
